From patent US12145915B1 (priority 2023, dated 2024)
In brackets after ≈: the same amount, converted by molar mass.

Key:
[1] = system: Mycobacterium tuberculosis H37Rv (ATCC: 25177); experiment: Resazurin Microplate Assay (REMA), MIC against H37Rv strain; assay type: cell-based; settings: 192 h, read-out: Anti-tubercular activity against Mycobacterium tuberculosis (μg/mL) H37Rv (MIC)

Compound | melting point [°C] | MIC [1] [µg/mL]
Cc1nc(-c2ccc(OCC(C)C)c(C#N)c2)sc1C(=O)N/N=C/c1ccc([N+](=O)[O-])o1 | 228 to 230 | –
Cc1nc(-c2ccc(OCC(C)C)c(C#N)c2)sc1C(=O)N/N=C/c1ccc(F)c(Oc2ccccc2)c1 [KNV-TZL1, (E)-2-(3-Cyano-4-isobutoxyphenyl)-N-(4-fluoro-3-phenoxybenzylidene)-4-methylthiazole-5-carbohydrazide] | 138 to 140 | 8 (≈ 15.1 µM)
COc1cc(/C=N/NC(=O)c2sc(-c3ccc(OCC(C)C)c(C#N)c3)nc2C)ccc1O [KNV-TZL2, (E)-2-(3-Cyano-4-isobutoxyphenyl)-N-(4-hydroxy-3-methoxybenzylidene)-4-methylthiazole-5-carbohydrazide] | 230 to 232 | 16 (≈ 34.4 µM)
